Data published in patent US8895585B2, “Nicotinamide derivative or salt thereof” (FUJIFILM Corporation, priority 2010, dated 2014).

These compounds were tested against T1, glutathione S-transferase (GST)-fused full-length human Syk protein (Homo sapiens, UniProt P43405) (assay: Syk enzyme assay). Settings: Syk enzyme assay, Test Example 1; read-out: IC50 of Syk-inhibitory activity.
T1 construct: (GST)-fused full-length human Syk protein; GST (glutathione S-transferase); purchased Carna Biosciences
Assay type: biochemical
Summary of the method: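 Baculovirus-expressed enzyme (1.2 ng) was preincubated with compound in HEPES pH 7.0/MgCl2/DTT buffer, 2 min shaking then 13 min at room temperature. Biotin-EDPDYEWPSA-NH2 (0.4 μM final) and ATP (27 μM final) were added for 40 min at room temperature. EDTA stop, streptavidin-XL/PT66-K TR-FRET at 615/665 nm gave IC50.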
In the case of `COc1ccc(-c2cc(Nc3nc(N[C@@H](CN)CC(C)C)c(F)cc3C(N)=O)ccn2)cc1` [Example 006-326, (R)-6-((1-amino-4-methylpentan-2-yl)amino)-5-fluoro-2-((2-(4-methoxyphenyl)pyridin-4-yl)amino)nicotinamide], the IC50 is reported as less than 10 nM. Compound `COc1cccc(-c2cc(Nc3nc(N[C@@H](CN)CC(C)C)c(F)cc3C(N)=O)ccn2)c1F` [Example 006-327, (R)-6-((1-amino-4-methylpentan-2-yl)amino)-5-fluoro-2-((2-(2-fluoro-3-methoxyphenyl)pyridin-4-yl)amino)nicotinamide] has an IC50 of less than 10 nM. With `COc1ccc(-c2cc(Nc3nc(N[C@@H](CN)CC(C)C)c(F)cc3C(N)=O)ccn2)c(F)c1` [Example 006-328, (R)-6-((1-amino-4-methylpentan-2-yl)amino)-5-fluoro-2-((2-(2-fluoro-4-methoxyphenyl)pyridin-4-yl)amino)nicotinamide] the IC50 was less than 10 nM. With `NC[C@H](Nc1nc(Nc2cncc(-c3ccccc3)c2)c(C(N)=O)cc1F)C1CC1` [Example 006-337, (R)-6-((2-amino-1-cyclopropylethyl)amino)-5-fluoro-2-((5-phenylpyridin-3-yl)amino)nicotinamide] the IC50 was 10 to 50 nM. `CCCC[C@H](CN)Nc1nc(Nc2cccc3c2cnn3C)c(C(N)=O)cc1F` [Example 006-339, (R)-6-((1-aminohexan-2-yl)amino)-5-fluoro-2-((1-methyl-1H-indazol-4-yl)amino)nicotinamide] gave an IC50 of 10 to 50 nM. With `CCCC[C@H](CN)Nc1nc(Nc2cncc(C3CC3)c2)c(C(N)=O)cc1F` [Example 006-340, (R)-6-((1-aminohexan-2-yl)amino)-2-((5-cyclopropylpyridin-3-yl)amino)-5-fluoronicotinamide] the IC50 was less than 10 nM. With `CCCC[C@H](CN)Nc1nc(Nc2cnc(C)c(C)c2)c(C(N)=O)cc1F` [Example 006-341, (R)-6-((1-aminohexane-2-yl)amino)-2-((5,6-dimethylpyridin-3-yl)amino)-5-fluoronicotinamide] the IC50 was 10 to 50 nM. `C[C@H](N)[C@@H](CC1CC1)Nc1nc(Nc2ccc3nccnc3c2)c(C(N)=O)cc1F` [Example 006-347, 6-(((2R,3S)-3-amino-1-cyclopropylbutan-2-yl)amino)-5-fluoro-2-((quinoxalin-6-yl)amino)nicotinamide] was tested, and the IC50 was 10 to 50 nM. `COc1cc(Nc2nc(N[C@H](CC3CC3)[C@H](C)N)c(F)cc2C(N)=O)cc(OC)n1` [Example 006-349, 6-(((2R,3S)-3-amino-1-cyclopropylbutan-2-yl)amino)-2-((2,6-dimethoxypyridin-4-yl)amino)-5-fluoronicotinamide] showed an IC50 of less than 10 nM. `CC[C@H](N)[C@@H](CC)Nc1nc(Nc2ccc3cnn(C)c3c2)c(C(N)=O)cc1F` [Example 006-366, 6-(((3R,4S)-4-aminohexan-3-yl)amino)-5-fluoro-2-((1-methyl-1H-indazol-6-yl)amino)nicotinamide] was tested, and the IC50 was 50 to 100 nM. In the case of `CC[C@H](N)[C@@H](CC)Nc1nc(Nc2cccc3c2cnn3C)c(C(N)=O)cc1F` [Example 006-367, 6-(((3R,4S)-4-aminohexan-3-yl)amino)-5-fluoro-2-((1-methyl-1H-indazol-4-yl)amino)nicotinamide], the IC50 is reported as 10 to 50 nM. `CC[C@H](N)[C@@H](CC)Nc1nc(Nc2cncc(F)c2)c(C(N)=O)cc1F` [Example 006-382, 6-(((3R,4S)-4-aminohexan-3-yl)amino)-5-fluoro-2-((5-fluoropyridin-3-yl)amino)nicotinamide] was tested, and the IC50 was 10 to 50 nM. Compound `CC[C@H](N)[C@@H](CC)Nc1nc(Nc2cnc(OC)c(-n3nccn3)c2)c(C(N)=O)cc1F` [Example 006-391, 6-(((3R,4S)-4-aminohexan-3-yl)amino)-5-fluoro-2-((6-methoxy-5-(2H-1,2,3-triazol-2-yl)pyridin-3-yl)amino)nicotinamide] has an IC50 of 10 to 50 nM. `COc1ncc(Nc2nc(N[C@H](CC3CC3)[C@H](C)N)c(F)cc2C(N)=O)cc1-n1nccn1` [Example 006-393, 6-(((2R,3S)-3-amino-1-cyclopropylbutan-2-yl)amino)-5-fluoro-2-((6-methoxy-5-(2H-1,2,3-triazol-2-yl)pyridin-3-yl)amino)nicotinamide] showed an IC50 of 10 to 50 nM. In the case of `CCC[C@@H](Nc1nc(Nc2ccc3c(cnn3CC)c2)c(C(N)=O)cc1F)[C@@H](N)CC` [Example 006-399, 6-(((3S,4R)-3-aminoheptan-4-yl)amino)-2-((1-ethyl-1H-indazol-5-yl)amino)-5-fluoronicotinamide], the IC50 is reported as less than 10 nM. Work on `CCC[C@@H](Nc1nc(Nc2cc(OC)nc(OC)c2)c(C(N)=O)cc1F)[C@@H](N)CC` [Example 006-413, 6-(((3S,4R)-3-aminoheptan-4-yl)amino)-2-((2,6-dimethoxypyridin-4-yl)amino)-5-fluoronicotinamide] yielded an IC50 of less than 10 nM. `CC(C)C[C@@H](Nc1nc(Nc2ccc3c(cnn3CCF)c2)c(C(N)=O)cc1F)[C@H](C)N` [Example 006-419, 6-(((2S,3R)-2-amino-5-methylhexan-3-yl)amino)-5-fluoro-2-((1-(2-fluoroethyl)-1H-indazol-5-yl)amino)nicotinamide] showed an IC50 of less than 10 nM. `CCCC[C@H](CN)Nc1nc(Nc2ccc3c(cnn3CC(F)F)c2)c(C(N)=O)cc1F` [Example 006-421, (R)-6-((1-aminohexan-2-yl)amino)-2-((1-(2,2-difluoroethyl)-1H-indazol-5-yl)amino)-5-fluoronicotinamide] gave an IC50 of 50 to 100 nM. Work on `CC(C)C[C@H](CN)Nc1nc(Nc2ccc3c(cnn3CC(F)F)c2)c(C(N)=O)cc1F` [Example 006-422, (R)-6-((1-amino-4-methylpentan-2-yl)amino)-2-((1-(2,2-difluoroethyl)-1H-indazol-5-yl)amino)-5-fluoronicotinamide] yielded an IC50 of less than 10 nM. Compound `CC[C@@H](Nc1nc(Nc2ccc3c(cnn3CC(F)F)c2)c(C(N)=O)cc1F)[C@H](C)N` [Example 006-423, 6-(((2S,3R)-2-aminopentan-3-yl)amino)-2-((1-(2,2-difluoroethyl)-1H-indazol-5-yl)amino)-5-fluoronicotinamide] has an IC50 of 10 to 50 nM. Compound `CCC[C@@H](Nc1nc(Nc2ccc3c(cnn3CC(F)F)c2)c(C(N)=O)cc1F)[C@H](C)N` [Example 006-424, 6-(((2S,3R)-2-aminohexan-3-yl)amino)-2-((1-(2,2-difluoroethyl)-1H-indazol-5-yl)amino)-5-fluoronicotinamide] has an IC50 of 10 to 50 nM. `CCCC[C@@H](Nc1nc(Nc2ccc3c(cnn3CC(F)F)c2)c(C(N)=O)cc1F)[C@H](C)N` [Example 006-425, 6-(((2S,3R)-2-aminoheptan-3-yl)amino)-2-((1-(2,2-difluoroethyl)-1H-indazol-5-yl)amino)-5-fluoronicotinamide] gave an IC50 of 10 to 50 nM. With `C[C@H](N)[C@@H](CC1CC1)Nc1nc(Nc2ccc3c(cnn3CC(F)F)c2)c(C(N)=O)cc1F` [Example 006-426, 6-(((2R,3S)-3-amino-1-cyclopropylbutan-2-yl)amino)-2-((1-(2,2-difluoroethyl)-1H-indazol-5-yl)amino)-5-fluoronicotinamide] the IC50 was 100 to 1000 nM. For `CCn1ncc2ccc(Nc3nc(N[C@H](CC4CC4)[C@H](C)N)c(F)cc3C(N)=O)cc21` [Example 006-436], the IC50 was 10 to 50 nM. For `C[C@H](N)[C@@H](CC1CC1)Nc1nc(Nc2ccc3cnn(CCF)c3c2)c(C(N)=O)cc1F` [Example 006-437, 6-(((2R,3S)-3-amino-1-cyclopropylbutan-2-yl)amino)-5-fluoro-2-((1-(2-fluoroethyl)-1H-indazol-6-yl)amino)nicotinamide], the IC50 was 10 to 50 nM. `C[C@H](N)[C@@H](CC1CC1)Nc1nc(Nc2ccc3cnn(CC(F)F)c3c2)c(C(N)=O)cc1F` [Example 006-438, 6-(((2R,3S)-3-amino-1-cyclopropylbutan-2-yl)amino)-2-((1-(2,2-difluoroethyl)-1H-indazol-6-yl)amino)-5-fluoronicotinamide] gave an IC50 of 10 to 50 nM. With `C[C@H](N)[C@@H](CC1CC1)Nc1nc(Nc2ccc3c(c2)c(F)nn3C)c(C(N)=O)cc1F` [Example 006-439, 6-(((2R,3S)-3-amino-1-cyclopropylbutan-2-yl)amino)-5-fluoro-2-((3-fluoro-1-methyl-1H-indazol-5-yl)amino)nicotinamide] the IC50 was 10 to 50 nM. Compound `C[C@H](N)[C@@H](CC1CC1)Nc1nc(Nc2ccc3c(F)nn(C)c3c2)c(C(N)=O)cc1F` [Example 006-440, 6-(((2R,3S)-3-amino-1-cyclopropylbutan-2-yl)amino)-5-fluoro-2-((3-fluoro-1-methyl-1H-indazol-6-yl)amino)nicotinamide] has an IC50 of 10 to 50 nM. `CCn1nc(F)c2ccc(Nc3nc(N[C@H](CC4CC4)[C@H](C)N)c(F)cc3C(N)=O)cc21` [Example 006-441, 6-(((2R,3S)-3-amino-1-cyclopropylbutan-2-yl)amino)-2-((1-ethyl-3-fluoro-1H-indazol-6-yl)amino)-5-fluoronicotinamide] was tested, and the IC50 was 10 to 50 nM. `NC(=O)c1cc(F)c(N[C@@H]2CCCC[C@@H]2N)nc1Nc1cnc(-n2cccn2)c(-n2cccn2)c1` [Example 006-448, 6-(((1R,2S)-2-aminocyclohexyl)amino)-2-((5,6-di(1H-pyrazol-1-yl)pyridin-3-yl)amino)-5-fluoronicotinamide] was tested, and the IC50 was 50 to 100 nM. Compound `NC(=O)c1cc(F)c(N[C@@H]2CCCC[C@@H]2N)nc1Nc1cnc(-n2cccn2)c(-n2ccnn2)c1` [Example 006-450, 2-((6-(1H-pyrazol-1-yl)-5-(1H-1,2,3-triazol-1-yl)pyridin-3-yl)amino)-6-(((1R,2S)-2-aminocyclohexyl)amino)-5-fluoronicotinamide] has an IC50 of 100 to 1000 nM. `CCn1nc(C(C)C)c2cc(Nc3nc(N[C@@H]4CCCC[C@@H]4N)c(F)cc3C(N)=O)ccc21` [Example 006-462, 6-(((1R,2S)-2-aminocyclohexyl)amino)-2-((1-ethyl-3-isopropyl-1H-indazol-5-yl)amino)-5-fluoronicotinamide] gave an IC50 of less than 10 nM. In the case of `COCCn1nc(C(C)C)c2cc(Nc3nc(N[C@@H]4CCCC[C@@H]4N)c(F)cc3C(N)=O)ccc21` [Example 006-463, 6-(((1R,2S)-2-aminocyclohexyl)amino)-5-fluoro-2-((3-isopropyl-1-(2-methoxyethyl)-1H-indazol-5-yl)amino)nicotinamide], the IC50 is reported as less than 10 nM.
